Calls of active or inactive are those of the source.
What was measured:
Paired box protein Pax-8 = Paired box protein Pax-8 (Homo sapiens, UniProt Q06710); assay: PAX8 transcriptional activity inhibition in RMG-I – RMG-I cells, luciferase, cherry-pick, dose response (AID 687027); type: functional, cell-based;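 further: luciferase reporter driven by Pax8 target thyroperoxidase promoter measured by SteadyGlo luminescence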
[1] = viability loss in HEK293 cells – cell-based, plate reader, cherry-picked samples, cytotoxicity control, dose response (AID 743446); type: functional
[2] = blockers of bursicon-stimulated LGR2 cAMP reporter – cell-based, HEK293, CRE-luciferase reporter, cherry pick, set 2, dose response (AID 743343); type: functional;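 further: transfected cells were stimulated with diluted bursicon conditioned medium after compound addition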
[3] = reduced cellular PGC1a acetyl-lysine signal – cell-based, cherry-picked samples, dose response (AID 720514); type: functional;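 further: potency may reflect raised or lowered acetylation signal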
[4] = A549 cell cytotoxicity, dose response, cytotoxicity control, plate reader, cherry-pick, antagonist series (AID 743412); type: functional, cell-based
[5] = general cell-killing toxicity readout – plate reader, dry powder samples, cytotoxicity control for PAX8 inhibitor project, dose response (AID 743021); type: functional, cell-based
[6] = toxicity toward HepG2 liver cells – cell-based, plate reader, cherry-pick, antagonist series, cytotoxicity control, dose response (AID 743416); type: functional
[7] = blockade of melanocortin 4 receptor signaling – cell-based, plate reader, cherry pick, counter-screen for LGR2 antagonist project, dose response (AID 743444); type: functional;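 further: transfected HEK 293 cells stimulated with alpha-MSH peptide; potency of inhibitors of the alpha-MSH evoked signal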
[8] = target: T1, Calpain-2 catalytic subunit (Sus scrofa, UniProt P43367); assay: m-calpain protease blockers, concentration series – biochemical, fluorogenic peptide substrate, dose response (AID 1420); type: functional
T1 sequence (P43367 whole entry): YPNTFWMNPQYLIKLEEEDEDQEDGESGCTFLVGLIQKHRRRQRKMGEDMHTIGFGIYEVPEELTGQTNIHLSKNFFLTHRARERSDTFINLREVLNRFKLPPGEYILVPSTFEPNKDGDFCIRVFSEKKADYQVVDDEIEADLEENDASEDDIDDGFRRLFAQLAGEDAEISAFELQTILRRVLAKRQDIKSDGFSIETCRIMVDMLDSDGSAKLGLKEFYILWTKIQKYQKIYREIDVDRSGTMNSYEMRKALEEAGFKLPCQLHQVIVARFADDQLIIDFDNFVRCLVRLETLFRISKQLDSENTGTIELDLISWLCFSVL

[9] = target: T2, DNA repair and recombination protein RAD54-like (Homo sapiens, UniProt Q92698); assay: RAD54 Holliday junction migration blockers – biochemical, fluorescence, cherry-picked samples, dose series, confirmation (AID 651657); type: functional
T2 sequence (Q92698 whole entry): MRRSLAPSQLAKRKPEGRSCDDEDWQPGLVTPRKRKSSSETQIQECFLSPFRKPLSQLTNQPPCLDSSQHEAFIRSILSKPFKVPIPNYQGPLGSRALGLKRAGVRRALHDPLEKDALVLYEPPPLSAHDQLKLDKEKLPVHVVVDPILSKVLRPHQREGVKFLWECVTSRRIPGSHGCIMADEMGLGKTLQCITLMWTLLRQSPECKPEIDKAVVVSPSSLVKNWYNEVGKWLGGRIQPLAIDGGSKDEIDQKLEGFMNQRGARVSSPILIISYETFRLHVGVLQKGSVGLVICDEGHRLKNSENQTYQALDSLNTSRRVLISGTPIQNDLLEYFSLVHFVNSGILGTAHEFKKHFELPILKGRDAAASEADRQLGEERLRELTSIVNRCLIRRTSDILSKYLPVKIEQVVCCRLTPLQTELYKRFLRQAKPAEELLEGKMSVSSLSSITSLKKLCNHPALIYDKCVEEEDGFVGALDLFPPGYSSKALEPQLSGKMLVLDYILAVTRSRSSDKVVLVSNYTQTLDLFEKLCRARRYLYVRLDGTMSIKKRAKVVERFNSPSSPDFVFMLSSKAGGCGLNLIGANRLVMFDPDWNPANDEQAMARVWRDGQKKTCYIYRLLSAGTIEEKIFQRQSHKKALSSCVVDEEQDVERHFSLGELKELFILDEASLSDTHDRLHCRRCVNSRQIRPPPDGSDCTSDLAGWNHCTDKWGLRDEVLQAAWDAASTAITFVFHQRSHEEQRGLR

[10] = target: T3, DNA repair protein RAD52 homolog (Homo sapiens, UniProt P43351); type: functional, biochemical
T3 sequence (P43351 whole entry): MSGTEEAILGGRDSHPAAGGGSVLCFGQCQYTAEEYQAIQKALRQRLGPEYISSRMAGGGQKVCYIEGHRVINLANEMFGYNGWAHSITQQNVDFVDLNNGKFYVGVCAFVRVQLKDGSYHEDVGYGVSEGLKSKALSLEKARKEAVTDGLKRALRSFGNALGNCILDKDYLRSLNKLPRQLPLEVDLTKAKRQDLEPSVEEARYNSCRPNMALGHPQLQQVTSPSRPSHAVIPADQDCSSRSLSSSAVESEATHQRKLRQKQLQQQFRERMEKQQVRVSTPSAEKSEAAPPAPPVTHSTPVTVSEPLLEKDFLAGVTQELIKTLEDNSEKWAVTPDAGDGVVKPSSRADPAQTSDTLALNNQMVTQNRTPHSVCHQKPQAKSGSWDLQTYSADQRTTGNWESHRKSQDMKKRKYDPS

[11] = target: T4, RNA-binding protein pos-1 (Caenorhabditis elegans, UniProt G5EF15); assay: disruptors of C. elegans POS-1 RNA interaction – biochemical, fluorescence polarization, dose response (AID 1964);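 further: purified POS-1 fused to maltose binding protein made in E. coli; potency of compounds blocking POS-1 binding to fluorescent RNA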
T4 sequence (G5EF15 whole entry): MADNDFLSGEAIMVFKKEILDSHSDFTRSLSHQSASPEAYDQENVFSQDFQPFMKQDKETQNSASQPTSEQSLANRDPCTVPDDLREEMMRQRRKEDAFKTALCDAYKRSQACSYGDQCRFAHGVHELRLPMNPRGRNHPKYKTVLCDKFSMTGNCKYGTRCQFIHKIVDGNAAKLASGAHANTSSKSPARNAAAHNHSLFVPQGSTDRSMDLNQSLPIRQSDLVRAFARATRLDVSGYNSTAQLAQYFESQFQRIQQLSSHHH

[12] = target: T5, Zinc finger protein mex-5 (Caenorhabditis elegans, UniProt Q9XUB2); assay: potency of MEX-5 RNA-binding blockers – biochemical, C. elegans, fluorescence polarization, dose response (AID 1960)
T5 sequence (Q9XUB2 whole entry): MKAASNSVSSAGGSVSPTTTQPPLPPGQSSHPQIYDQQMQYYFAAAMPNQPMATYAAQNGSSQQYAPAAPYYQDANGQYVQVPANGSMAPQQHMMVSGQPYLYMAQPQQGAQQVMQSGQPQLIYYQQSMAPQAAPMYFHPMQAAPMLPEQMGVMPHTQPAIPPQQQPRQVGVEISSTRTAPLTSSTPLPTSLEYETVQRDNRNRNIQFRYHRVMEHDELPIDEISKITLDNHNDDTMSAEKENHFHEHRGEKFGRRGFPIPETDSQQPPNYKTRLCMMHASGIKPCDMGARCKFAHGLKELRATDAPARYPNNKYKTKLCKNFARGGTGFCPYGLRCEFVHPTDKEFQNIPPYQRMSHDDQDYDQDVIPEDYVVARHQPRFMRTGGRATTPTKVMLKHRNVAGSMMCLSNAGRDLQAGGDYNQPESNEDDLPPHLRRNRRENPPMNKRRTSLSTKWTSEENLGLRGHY

[13] = viability of uninfected HEp-2 cells – cell-based, HTS, cytotoxicity control for RSV inhibitor project, dose response (AID 2410); type: functional; conditions: human respiratory syncytial virus
Fatty acid synthase [14] = target: T6, Fatty acid synthase (Homo sapiens, UniProt P49327); assay: inhibition of human FAS-TE enzyme activity – biochemical, kinetic fluorescence intensity, dose response (AID 624326); type: functional;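 further: rate of fluorescence rise from hydrolysis of a fluorogenic O-methyl fluorescein ester substrate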
T6 sequence (P49327 whole entry): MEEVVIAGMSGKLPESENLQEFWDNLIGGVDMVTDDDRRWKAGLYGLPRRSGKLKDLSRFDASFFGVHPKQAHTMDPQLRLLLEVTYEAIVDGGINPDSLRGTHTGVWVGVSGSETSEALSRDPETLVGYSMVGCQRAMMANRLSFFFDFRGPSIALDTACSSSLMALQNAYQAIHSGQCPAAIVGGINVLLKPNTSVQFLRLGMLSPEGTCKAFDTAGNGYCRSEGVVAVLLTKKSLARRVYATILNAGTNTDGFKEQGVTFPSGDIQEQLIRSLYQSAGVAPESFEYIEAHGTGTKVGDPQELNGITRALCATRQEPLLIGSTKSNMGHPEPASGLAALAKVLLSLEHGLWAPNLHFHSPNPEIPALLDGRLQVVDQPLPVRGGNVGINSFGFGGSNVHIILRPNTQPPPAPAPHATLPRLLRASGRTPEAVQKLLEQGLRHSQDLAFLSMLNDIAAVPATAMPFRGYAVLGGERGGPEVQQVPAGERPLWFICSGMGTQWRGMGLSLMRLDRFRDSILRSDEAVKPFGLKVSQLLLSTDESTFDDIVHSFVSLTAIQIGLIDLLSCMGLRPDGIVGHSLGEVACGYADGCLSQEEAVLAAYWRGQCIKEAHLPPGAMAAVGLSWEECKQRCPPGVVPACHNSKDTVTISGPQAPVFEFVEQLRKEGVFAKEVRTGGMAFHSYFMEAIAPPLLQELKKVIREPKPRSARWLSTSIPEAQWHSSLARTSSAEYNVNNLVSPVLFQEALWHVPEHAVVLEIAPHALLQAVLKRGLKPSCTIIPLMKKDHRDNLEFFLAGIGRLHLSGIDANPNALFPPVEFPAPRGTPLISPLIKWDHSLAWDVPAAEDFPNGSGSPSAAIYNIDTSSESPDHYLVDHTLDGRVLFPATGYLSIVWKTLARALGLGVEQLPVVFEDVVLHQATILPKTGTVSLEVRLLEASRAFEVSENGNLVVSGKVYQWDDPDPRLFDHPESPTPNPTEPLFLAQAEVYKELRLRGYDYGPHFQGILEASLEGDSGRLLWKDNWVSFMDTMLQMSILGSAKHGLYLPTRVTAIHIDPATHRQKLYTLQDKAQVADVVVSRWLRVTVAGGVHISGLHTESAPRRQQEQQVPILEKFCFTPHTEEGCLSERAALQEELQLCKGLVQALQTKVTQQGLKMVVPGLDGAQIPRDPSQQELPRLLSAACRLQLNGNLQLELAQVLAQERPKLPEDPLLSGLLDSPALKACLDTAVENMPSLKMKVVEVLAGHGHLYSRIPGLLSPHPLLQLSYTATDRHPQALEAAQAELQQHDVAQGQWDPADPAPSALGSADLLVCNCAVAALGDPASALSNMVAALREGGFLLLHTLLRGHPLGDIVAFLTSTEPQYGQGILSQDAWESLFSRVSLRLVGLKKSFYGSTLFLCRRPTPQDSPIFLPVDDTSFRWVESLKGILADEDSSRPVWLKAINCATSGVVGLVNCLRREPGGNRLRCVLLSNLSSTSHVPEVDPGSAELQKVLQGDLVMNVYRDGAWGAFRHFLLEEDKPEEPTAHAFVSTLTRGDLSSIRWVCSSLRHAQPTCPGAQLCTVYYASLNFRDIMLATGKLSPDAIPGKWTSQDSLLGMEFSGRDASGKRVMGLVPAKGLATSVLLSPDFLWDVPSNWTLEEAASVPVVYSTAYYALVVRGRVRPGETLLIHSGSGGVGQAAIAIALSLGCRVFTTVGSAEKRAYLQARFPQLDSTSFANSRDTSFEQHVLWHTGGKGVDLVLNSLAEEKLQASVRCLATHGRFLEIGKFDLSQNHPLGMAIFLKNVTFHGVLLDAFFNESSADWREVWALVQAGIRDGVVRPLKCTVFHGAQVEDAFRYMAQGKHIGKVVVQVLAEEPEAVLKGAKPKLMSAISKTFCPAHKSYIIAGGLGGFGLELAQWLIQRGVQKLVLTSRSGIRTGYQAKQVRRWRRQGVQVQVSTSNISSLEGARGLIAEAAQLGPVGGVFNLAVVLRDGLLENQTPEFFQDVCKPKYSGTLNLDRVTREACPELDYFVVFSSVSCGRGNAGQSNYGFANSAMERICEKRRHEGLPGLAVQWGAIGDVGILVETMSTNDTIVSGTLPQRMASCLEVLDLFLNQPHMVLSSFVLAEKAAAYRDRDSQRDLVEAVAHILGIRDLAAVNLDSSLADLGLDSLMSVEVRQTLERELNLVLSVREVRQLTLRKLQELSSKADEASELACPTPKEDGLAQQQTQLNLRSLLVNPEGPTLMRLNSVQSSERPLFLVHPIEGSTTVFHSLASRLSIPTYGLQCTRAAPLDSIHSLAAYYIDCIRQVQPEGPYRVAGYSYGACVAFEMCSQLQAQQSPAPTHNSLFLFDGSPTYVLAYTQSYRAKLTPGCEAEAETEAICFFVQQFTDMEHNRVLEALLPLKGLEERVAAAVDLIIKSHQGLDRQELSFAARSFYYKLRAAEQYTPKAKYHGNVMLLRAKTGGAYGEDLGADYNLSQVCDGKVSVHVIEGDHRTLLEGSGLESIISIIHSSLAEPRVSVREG

Fatty acid synthase [15] = target: T6, Fatty acid synthase; assay: inhibition of human FAS-TE enzyme activity – biochemical, endpoint fluorescence intensity, uHTS hits, dose response (AID 624327); type: functional;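 further: fluorescence from hydrolysis of an O-methyl fluorescein acyl ester substrate by the enzyme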
[16] = HIV-1 AD8 envelope cell-cell fusion blockers – cherry-pick, dose response (AID 652062); type: functional, cell-based;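 further: luciferase signal from cell-cell fusion driven by HIV-1 clade B AD8 Env; potency is for inhibitors of fusion seen as a drop in luminescence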
[17] = blockers of HIV-1 ZM109 envelope-driven cell-cell fusion – HeLa effector, CEM target cells, luciferase, cherry-pick, dose response (AID 652058); type: functional, cell-based;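 further: luciferase signal from HIV-1 Env mediated cell-cell fusion of effector and target cells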
[18] = blockers of HIV-1 envelope-mediated cell-cell fusion – cherry-pick, dose response (AID 652057); type: functional, cell-based
[19] = off-target signal loss in HeLa-CEM21 co-culture – HeLa F-luc CTL cells, cherry-picked, counter-screen for HIV-1 Env fusion inhibitor project, dose response (AID 652040); type: functional, cell-based;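 further: potency for signal decrease marking cytotoxic or nonspecific inhibition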
Streptokinase A = target: T7, Streptokinase A (Streptococcus pyogenes serotype M1, UniProt P10520); assay: viability-normalized secreted streptokinase activity reduction – plasminogen activation absorbance, OD405, dose response (AID 1914); type: functional, Streptococcus pyogenes M1 GAS;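 further: secreted streptokinase activity via plasminogen activation per viability signal from cell pellet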
T7 sequence (P10520 whole entry): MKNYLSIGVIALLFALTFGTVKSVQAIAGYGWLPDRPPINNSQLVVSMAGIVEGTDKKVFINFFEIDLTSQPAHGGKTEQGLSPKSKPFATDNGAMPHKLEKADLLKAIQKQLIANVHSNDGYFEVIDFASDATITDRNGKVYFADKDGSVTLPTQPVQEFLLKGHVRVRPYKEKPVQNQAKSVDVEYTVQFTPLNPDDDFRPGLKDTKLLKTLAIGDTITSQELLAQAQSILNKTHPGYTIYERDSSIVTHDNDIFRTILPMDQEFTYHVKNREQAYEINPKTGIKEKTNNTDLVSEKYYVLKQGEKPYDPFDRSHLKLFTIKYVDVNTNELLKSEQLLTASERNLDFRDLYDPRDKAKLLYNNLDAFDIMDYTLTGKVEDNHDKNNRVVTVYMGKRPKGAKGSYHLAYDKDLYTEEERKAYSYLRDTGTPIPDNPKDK

[20] = tested on: Streptococcus sp. 'group A'; assay: Streptococcus pyogenes SK(-)GAS viability under kanamycin – luminescence, BacTiterGlo, confirmation, counter-screen for streptokinase expression inhibitor project, dose response (AID 1900); type: functional, organism-based
[21] = viability loss in THP-1 monocytes – THP-1 cells, cytotoxicity control for Vif-APOBEC3G degradation inhibitor project, dose response (AID 1117359); type: functional; conditions: THP-1
Streptococcus = assay: GAS UMAA2166 growth inhibition – luminescence, BacTiterGlo, counter-screen for streptokinase expression inhibitor project, dose response (AID 1915); type: functional, organism-based;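 further: potency for reduction of bacterial viability or growth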
[22] = target: T8, Voltage-gated N-type calcium channel alpha-1B subunit/Amyloid beta A4 precursor protein-binding family A member 1 (Homo sapiens, UniProt Q00975+Q02410); type: protein assay
[23] = target: T8, Voltage-gated N-type calcium channel alpha-1B subunit/Amyloid beta A4 precursor protein-binding family A member 1; type: protein assay; remark: listed apart in the source

Sequence of Paired box protein Pax-8 (Q06710 whole entry): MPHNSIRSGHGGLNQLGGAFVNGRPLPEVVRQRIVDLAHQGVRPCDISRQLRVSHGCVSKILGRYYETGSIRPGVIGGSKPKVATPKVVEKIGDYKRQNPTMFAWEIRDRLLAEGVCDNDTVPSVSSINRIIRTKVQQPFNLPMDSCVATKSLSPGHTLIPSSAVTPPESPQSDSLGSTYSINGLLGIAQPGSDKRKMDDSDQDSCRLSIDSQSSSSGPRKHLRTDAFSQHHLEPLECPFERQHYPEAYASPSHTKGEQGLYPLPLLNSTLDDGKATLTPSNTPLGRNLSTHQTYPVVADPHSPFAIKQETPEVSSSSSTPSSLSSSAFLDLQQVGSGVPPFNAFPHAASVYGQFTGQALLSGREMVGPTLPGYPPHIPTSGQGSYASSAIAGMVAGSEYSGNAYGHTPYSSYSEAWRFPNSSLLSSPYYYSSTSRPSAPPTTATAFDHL

Oc1nc2ccccc2n1C1CCN(C(c2cc3ccccc3o2)c2nnnn2Cc2ccccc2)CC1 (configuration not stated)
AC50 (Paired box protein Pax-8): 6.31 µM (active)
AC50 [1]: 14.7 µM (active)
AC50 [2]: 13.5 µM (active)
AC50 [3]: 9.76 µM (active)
AC50 [4]: 9.97 µM (active)
AC50 [5]: 19 µM (active)
AC50 [6]: 24.8 µM (active)
AC50 [7]: 9.44 µM (active)

Cc1nc(SCC(=O)Nc2ccccc2)c2oc3ccccc3c2n1
IC50 [8]: > 50 µM (not active)

CC(C)OCC(O)CN1CCN(CCN2C(=O)c3cccc4cccc(c34)C2=O)CC1 (configuration not stated)
AC50 [9]: 8.86 µM (active)
AC50 [10]: 3.93 µM (active)
EC50 [11]: > 300 µM (not active)
EC50 [12]: > 300 µM (not active)

COc1ccc(-c2cc(C(=O)N/N=C/c3ccc4c(c3)OCO4)c3ccccc3n2)c(OC)c1
CC50 [13]: 44.4 µM (active)
IC50 (cells): 27.9 µM (active)

Cc1ccc([N+](=O)[O-])cc1NC(=O)C(Sc1ccccc1)c1ccccc1 (configuration not stated)
IC50 (Fatty acid synthase [14]): 1.73 µM (active)
IC50 (Fatty acid synthase [15]): 2.24 µM (active)
IC50 [8]: > 50 µM (not active)

O=C(NCc1ccco1)c1ccc(Cn2c(=O)c3sccc3n(Cc3cccc(F)c3)c2=O)cc1
AC50 [16]: 2.36 µM (active)
AC50 [17]: 0.58 µM (active)
CC50 [13]: > 12.5 µM (active)
IC50 (cells): 5.66 µM (active)
AC50 [18]: < 0.26 µM (active)
AC50 [19]: 0.348 µM (active)

C=CCN1C(=O)NC(=O)/C(=C(/CC)Nc2ccc(N(C)C)cc2)C1=O
EC50 (Streptokinase A): > 150 µM (not active)
EC50 [20]: 5.65 µM (active)
CC50 [21]: > 40 µM (active)
EC50 (Streptococcus): 9.73 µM (active)

Cc1c(Cc2ccccc2)sc(NC(=O)c2ccco2)c1C(N)=O
IC50 [22]: 9.09 µM (active)
IC50 [23]: > 50 µM (inactive)

CC1=C(N2CC2)C(=O)C(CO)=C(N2CC2)C1=O
AC50 (Paired box protein Pax-8): < 0.26 µM (active)
AC50 [5]: 14.8 µM (active)
